Experimental data reported in ChEMBL document CHEMBL5465560, “Selectivity Literature for EUbOPEN Chemogenomic Library” (2024).
Values belong to the molecule of their own block, whether it stands above or below them.

Experiments:
[1] = target: Dual specificity tyrosine-phosphorylation-regulated kinase 1B (Homo sapiens, UniProt Q9Y463); conditions: at 10 µM
[2] = target: Hepatocyte growth factor receptor (Homo sapiens, UniProt P08581); conditions: at 10 µM
[3] = target: Vascular endothelial growth factor receptor 1 (Homo sapiens) (UniProt P17948); conditions: at 10 µM
Sequence of Vascular endothelial growth factor receptor 1 (Homo sapiens) (P17948 whole entry): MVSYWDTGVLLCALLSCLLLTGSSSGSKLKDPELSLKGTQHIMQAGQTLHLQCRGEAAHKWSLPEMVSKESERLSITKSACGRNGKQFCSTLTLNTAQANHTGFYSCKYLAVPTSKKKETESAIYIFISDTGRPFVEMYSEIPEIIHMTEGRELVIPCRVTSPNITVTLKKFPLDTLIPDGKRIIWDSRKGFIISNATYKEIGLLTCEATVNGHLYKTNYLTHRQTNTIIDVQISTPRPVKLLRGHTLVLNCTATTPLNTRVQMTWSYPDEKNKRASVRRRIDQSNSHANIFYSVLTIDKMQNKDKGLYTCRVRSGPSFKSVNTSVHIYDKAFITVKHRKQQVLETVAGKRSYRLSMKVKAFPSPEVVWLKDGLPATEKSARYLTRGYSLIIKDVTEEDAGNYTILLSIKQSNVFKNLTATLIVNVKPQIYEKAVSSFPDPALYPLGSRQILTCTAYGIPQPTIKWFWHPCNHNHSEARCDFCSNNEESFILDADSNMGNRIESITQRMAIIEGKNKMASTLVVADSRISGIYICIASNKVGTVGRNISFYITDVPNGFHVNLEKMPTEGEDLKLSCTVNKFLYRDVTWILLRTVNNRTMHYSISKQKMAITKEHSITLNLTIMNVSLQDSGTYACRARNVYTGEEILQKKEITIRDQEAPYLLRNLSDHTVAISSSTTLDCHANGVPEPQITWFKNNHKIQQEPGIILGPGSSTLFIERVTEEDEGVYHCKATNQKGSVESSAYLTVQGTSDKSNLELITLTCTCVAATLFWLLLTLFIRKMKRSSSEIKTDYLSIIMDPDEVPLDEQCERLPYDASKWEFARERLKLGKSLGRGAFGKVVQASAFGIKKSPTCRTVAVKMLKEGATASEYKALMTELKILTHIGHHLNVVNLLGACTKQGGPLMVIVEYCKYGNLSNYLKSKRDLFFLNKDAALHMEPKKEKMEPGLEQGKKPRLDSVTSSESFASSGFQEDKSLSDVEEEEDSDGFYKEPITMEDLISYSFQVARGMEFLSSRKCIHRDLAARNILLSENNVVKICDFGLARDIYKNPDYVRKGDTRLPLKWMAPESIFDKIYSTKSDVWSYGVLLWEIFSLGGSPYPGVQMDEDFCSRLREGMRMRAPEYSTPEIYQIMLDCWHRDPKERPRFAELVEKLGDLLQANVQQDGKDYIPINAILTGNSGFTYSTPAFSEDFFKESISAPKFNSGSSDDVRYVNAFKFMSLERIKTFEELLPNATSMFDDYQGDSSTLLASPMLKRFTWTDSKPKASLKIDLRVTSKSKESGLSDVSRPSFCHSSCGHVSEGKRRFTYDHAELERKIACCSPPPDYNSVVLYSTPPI

[4] = target: T1, Tyrosine-protein kinase TXK (Homo sapiens) (UniProt P42681); assay: Selectivity interaction (KinomeScan (DiscoverX)) EUB0001079a TXK; conditions: at 1 µM
T1 sequence (whole entry): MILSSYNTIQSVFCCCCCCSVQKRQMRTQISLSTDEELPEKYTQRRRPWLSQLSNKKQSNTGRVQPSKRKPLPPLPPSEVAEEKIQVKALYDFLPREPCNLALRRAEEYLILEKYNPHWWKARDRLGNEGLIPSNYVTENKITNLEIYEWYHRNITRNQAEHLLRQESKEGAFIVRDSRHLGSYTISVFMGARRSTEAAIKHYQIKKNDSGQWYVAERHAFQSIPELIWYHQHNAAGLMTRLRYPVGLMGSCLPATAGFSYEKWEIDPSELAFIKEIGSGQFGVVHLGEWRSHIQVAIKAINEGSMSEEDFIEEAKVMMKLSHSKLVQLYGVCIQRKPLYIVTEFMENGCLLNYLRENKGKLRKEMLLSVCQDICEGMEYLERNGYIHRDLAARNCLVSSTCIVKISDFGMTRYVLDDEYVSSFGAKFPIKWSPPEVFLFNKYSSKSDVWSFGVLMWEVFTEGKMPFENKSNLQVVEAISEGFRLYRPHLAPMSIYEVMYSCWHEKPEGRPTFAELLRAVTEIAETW

[5] = target: T2, SNF-related serine/threonine-protein kinase (Homo sapiens) (UniProt Q9NRH2); assay: Selectivity interaction (KinomeScan (DiscoverX)) EUB0001079a SNRK; conditions: at 1 µM
T2 sequence (whole entry): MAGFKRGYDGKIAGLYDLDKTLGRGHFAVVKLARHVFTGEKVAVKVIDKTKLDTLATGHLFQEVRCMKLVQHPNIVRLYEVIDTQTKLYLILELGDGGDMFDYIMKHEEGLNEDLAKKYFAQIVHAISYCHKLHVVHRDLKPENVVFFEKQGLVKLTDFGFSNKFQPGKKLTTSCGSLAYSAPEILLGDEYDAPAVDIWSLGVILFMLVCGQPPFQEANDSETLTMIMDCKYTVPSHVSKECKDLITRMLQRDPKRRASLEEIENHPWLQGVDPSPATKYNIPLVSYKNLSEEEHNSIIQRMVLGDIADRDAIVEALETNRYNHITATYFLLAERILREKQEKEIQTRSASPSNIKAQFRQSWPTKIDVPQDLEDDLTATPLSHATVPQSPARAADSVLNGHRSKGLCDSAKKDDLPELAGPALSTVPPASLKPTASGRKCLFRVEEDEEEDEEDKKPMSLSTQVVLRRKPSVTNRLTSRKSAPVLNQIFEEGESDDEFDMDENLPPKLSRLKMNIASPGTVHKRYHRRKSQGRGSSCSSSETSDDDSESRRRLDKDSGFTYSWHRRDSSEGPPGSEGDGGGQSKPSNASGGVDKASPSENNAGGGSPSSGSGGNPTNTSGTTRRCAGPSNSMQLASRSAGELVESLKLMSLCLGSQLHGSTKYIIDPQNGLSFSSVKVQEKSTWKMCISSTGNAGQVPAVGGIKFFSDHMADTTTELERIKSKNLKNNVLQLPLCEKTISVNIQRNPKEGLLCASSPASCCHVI

[6] = target: T3, cGMP-dependent protein kinase 1 (Homo sapiens) (UniProt Q13976); assay: Selectivity interaction (KinomeScan (DiscoverX)) EUB0000092b PRKG1; conditions: at 10 µM
T3 sequence (whole entry): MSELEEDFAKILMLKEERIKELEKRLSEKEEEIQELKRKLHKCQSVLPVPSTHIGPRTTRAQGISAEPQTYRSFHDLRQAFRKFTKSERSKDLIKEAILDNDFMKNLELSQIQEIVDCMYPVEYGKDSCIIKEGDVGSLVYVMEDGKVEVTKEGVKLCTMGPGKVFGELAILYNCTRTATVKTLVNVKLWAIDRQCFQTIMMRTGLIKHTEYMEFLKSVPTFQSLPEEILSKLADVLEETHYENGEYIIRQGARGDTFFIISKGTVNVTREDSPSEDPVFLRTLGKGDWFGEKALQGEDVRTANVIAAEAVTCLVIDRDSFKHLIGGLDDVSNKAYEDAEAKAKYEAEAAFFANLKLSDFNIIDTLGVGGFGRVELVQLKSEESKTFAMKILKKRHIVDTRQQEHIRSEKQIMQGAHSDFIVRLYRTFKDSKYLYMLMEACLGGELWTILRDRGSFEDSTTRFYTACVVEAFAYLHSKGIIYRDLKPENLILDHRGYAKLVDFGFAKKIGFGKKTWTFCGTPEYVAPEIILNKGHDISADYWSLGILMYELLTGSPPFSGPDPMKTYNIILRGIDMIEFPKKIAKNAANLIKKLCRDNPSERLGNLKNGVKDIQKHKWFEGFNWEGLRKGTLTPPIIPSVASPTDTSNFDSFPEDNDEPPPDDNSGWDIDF

Sequence of Dual specificity tyrosine-phosphorylation-regulated kinase 1B (Q9Y463 whole entry, looked up): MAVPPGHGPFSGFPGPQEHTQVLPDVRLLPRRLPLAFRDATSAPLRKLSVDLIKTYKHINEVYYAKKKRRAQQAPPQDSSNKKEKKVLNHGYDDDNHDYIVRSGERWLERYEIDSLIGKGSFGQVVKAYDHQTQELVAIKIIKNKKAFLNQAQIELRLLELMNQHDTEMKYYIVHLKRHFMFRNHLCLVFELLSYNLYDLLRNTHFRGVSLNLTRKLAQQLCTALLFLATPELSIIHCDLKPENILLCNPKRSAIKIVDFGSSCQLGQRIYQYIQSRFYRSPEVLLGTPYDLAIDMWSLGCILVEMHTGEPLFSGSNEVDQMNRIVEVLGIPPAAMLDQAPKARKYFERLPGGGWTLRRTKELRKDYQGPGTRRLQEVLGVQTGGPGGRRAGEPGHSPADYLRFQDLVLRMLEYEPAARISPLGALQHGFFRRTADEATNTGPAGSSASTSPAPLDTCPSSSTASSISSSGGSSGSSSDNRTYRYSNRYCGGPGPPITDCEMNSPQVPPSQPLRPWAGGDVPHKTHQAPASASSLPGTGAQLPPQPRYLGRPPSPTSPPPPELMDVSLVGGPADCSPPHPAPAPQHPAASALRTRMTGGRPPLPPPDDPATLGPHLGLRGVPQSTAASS
Sequence of Hepatocyte growth factor receptor (P08581 whole entry): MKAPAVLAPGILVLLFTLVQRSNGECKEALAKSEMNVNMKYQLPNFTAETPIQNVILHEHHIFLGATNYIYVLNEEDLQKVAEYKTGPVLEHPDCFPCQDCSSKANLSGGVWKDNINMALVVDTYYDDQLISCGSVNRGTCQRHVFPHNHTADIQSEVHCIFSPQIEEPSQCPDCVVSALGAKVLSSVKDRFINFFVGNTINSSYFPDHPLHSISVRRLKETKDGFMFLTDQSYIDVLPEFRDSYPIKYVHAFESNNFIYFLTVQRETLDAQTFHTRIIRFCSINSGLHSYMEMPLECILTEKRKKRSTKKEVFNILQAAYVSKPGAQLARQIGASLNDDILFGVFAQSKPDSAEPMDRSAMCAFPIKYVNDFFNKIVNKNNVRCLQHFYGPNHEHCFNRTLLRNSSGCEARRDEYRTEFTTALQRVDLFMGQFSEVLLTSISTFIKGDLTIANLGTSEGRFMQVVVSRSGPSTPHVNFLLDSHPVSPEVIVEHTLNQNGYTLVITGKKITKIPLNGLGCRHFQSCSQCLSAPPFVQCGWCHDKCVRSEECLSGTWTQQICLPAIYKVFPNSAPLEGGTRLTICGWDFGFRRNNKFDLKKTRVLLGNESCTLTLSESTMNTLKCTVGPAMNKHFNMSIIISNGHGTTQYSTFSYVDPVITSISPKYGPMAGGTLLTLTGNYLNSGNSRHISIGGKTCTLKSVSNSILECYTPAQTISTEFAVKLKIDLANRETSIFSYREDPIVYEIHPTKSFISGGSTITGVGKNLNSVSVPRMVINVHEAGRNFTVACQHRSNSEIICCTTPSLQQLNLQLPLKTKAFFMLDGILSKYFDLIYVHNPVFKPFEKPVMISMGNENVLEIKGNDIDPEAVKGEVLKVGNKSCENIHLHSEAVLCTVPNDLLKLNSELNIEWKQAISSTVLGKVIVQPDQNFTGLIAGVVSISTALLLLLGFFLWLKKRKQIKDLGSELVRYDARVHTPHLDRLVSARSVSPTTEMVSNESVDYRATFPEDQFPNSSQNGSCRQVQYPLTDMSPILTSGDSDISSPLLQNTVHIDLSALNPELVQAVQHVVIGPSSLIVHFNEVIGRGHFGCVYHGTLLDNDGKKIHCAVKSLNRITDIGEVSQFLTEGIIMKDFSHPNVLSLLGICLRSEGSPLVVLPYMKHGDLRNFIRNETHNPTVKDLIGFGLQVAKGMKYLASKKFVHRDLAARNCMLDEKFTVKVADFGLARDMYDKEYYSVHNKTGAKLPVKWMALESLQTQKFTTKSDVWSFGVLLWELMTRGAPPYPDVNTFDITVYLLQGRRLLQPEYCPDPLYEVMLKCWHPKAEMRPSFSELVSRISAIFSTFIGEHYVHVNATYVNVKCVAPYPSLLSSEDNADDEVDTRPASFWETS

% of control [1]: 100%
% of control [2]: 100%
Structure (SMILES): CCN(CC)CCCCNc1ncc2cc(-c3cc(OC)cc(OC)c3)c(NC(=O)NC(C)(C)C)nc2n1

Structure (SMILES): COCC(=O)NC/C=C/c1ccc2ncnc(Nc3ccc(Oc4ccc(C)nc4)c(C)c3)c2c1 [CP-724714]
% of control [3]: 88%

Structure (SMILES): Nc1cnc(N2CCc3cc(S(=O)(=O)Nc4c(F)cc(Cl)cc4F)cc(N4CCCC4=O)c32)nc1 [TP-020n]
% of control [4]: 83%
% of control [5]: 100%

Structure (SMILES): CCC(=O)N1CCN(c2ccc(-n3c(=O)ccc4cnc5ccc(-c6cnc7ccccc7c6)cc5c43)cc2C(F)(F)F)CC1
% of control [6]: 86%
